# Entries after “also recorded” stand apart in the source; their conditions may differ. Where a SMILES comes first, the peptide text is derived from it.
# Tests used:
# trypsin = molecular target: T1, trypsin (Bos taurus, UniProt P00760); assay: Simulated intestinal fluid (SIF, trypsin only) digestion of Ara h 1 peptides; type: in vitro ADME, bovine; settings: SIF containing only trypsin, 200 μg peptide in 1 mL, 37°C, samples at 1, 2, 4, 16 h, LC-MS peak integration; for peptide cleaved at the K287 site in SIF (formation of 2227.05 amu ion as percentage of sum of parental and fragment ions): Fig. 2C; for SIF (trypsin) cleavage, formation of 1073.55 amu cleavage ion, in words: Fig. 2D
# T1 construct: purchased Sigma; host or cells: bovine pancreas (tissue-derived)
# T1 sequence (P00760 24-246): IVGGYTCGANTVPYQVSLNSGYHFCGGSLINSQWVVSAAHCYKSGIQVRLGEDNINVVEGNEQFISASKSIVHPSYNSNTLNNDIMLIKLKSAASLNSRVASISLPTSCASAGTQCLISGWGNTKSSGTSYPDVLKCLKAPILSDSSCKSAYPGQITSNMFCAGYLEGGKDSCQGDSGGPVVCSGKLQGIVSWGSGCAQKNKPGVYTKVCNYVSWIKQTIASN
# Description: Pepsin from porcine gastric mucosa and trypsin from bovine pancreas were purchased from Sigma. Sequencing grade-modified trypsin was purchased from Promega. Water was obtained using a Synergy Ultrapure water system (Millipore). Modified and unmodified Ara h 1 peptides were synthesized (at least 95% pure) and purchased from New England Peptide. Serum samples from five peanut allergic patients were purchased from PlasmaLab International (Everett, WA).
# Simulated gastric fluid (SGF) containing pepsin and simulated intestinal fluid (SIF) containing trypsin were used as described previously (Mattison et al. [2014b]). Synthetic peptides were resuspended in water just prior to use at a concentration of 1 mg/mL. Peptides (200 μg) were digested with SGF or SIF in 1 mL reaction volume for 1, 2, 4, or 16 h at 37°C. Samples (100 μL) were removed at the indicated time points, 5% formic acid was added, and samples were frozen at −80°C prior to analysis by mass spectrometry.
# Analysis of trypsin/pepsin digestions: trypsin or pepsin digested Ara h 1 peptides were analyzed via liquid chromatography with tandem mass spectrometry (LC/MS/MS), using an Agilent 1200 LC system, an Agilent Chip Cube interface, and an Agilent 6520 Q-TOF tandem mass spectrometer (Agilent Technologies, Santa Clara, CA) as described in Mattison et al. (Mattison et al. [2014a]). One microliter sample aliquots were transferred to an enrichment column via capillary pump operating at a flow of 4 μL/min. The Nano pump was operated at a flow rate of 600 nL/min. An initial gradient (Solvent A-100% H2O, 0.1% Formic Acid; Solvent B- 90% ACN, 10% H2O and 0.1% Formic Acid) of 97% A was changed to 10% […] at 2 min, 70% at 15 min, 100% at 20 min, and back to 97% at 25 min. A postrun time of 5 min was employed for column equilibration. An initial MS scan was performed from m/z 300 to 1600 and up to six multiply charged ions were selected for MS/MS analysis. The raw MS/MS data files were extracted, sequenced, and searched against a custom database containing the Ara h 1 sequence using Spectrum Mill software (Agilent Technologies, Santa Clara, CA). For relative quantification, samples were run in MS-only mode and chromatographic peak areas were integrated into selected ions representative of the peptide cleavage products, resulting from the protease digest.
# We evaluated the digestion of the modified and unmodified peptides using SIF containing only trypsin to mimic intestinal digestion conditions. […] To quantify the results, we integrated the relative peak areas of the 2227.05 and 1073.55 amu ions and undigested parental ions, and plotted the generation of the peptide cleavage products as a percentage of the sum of the parental and fragment ion values over time (Fig.2C and D). […]
# [1] = test system: Pepsin from porcine gastric mucosa; assay: Simulated gastric fluid (SGF) containing pepsin; settings: 37°C, up to 16 h
# [2] = test system: trypsin from bovine pancreas; assay: simulated intestinal fluid (SIF) containing trypsin; settings: 37°C, up to 16 h
compound,measurement,setting,value
"VAKISMPVNTPGQFEDFFPASSR [synthetic Ara h 1 peptide, residues 285–307, unmodified]",peptide cleaved at the K287 site in SIF (formation of 2227.05 amu ion as percentage of sum of parental and fragment ions),trypsin,about 50%
IFLAGDKDNVIDQIEK,fragment found,[1],"IFLAGDKDNVIDQ, major; also recorded: AGDKDNVIDQ, major; also recorded: IFLAGDKD, major"
same,cleaved bond,[2],K547-D548
CC[C@H](C)[C@H](N)C(=O)N[C@@H](Cc1ccccc1)C(=O)N[C@@H](CC(C)C)C(=O)N[C@@H](C)C(=O)NCC(=O)N[C@@H](CC(=O)O)C(=O)N[C@@H](CCCCN)C(=O)N[C@@H](CC(=O)O)C(=O)N[C@@H](CC(N)=O)C(=O)N[C@H](C(=O)N[C@H](C(=O)N[C@@H](CC(=O)O)C(=O)N[C@@H](CCC(N)=O)C(=O)N[C@H](C(=O)N[C@@H](CCC(=O)O)C(=O)N[C@@H](CCCCN)C(=O)O)[C@@H](C)CC)[C@@H](C)CC)C(C)C [IFLAG] (H-IFLAGDKDNVIDQIEK-OH),"SIF (trypsin) cleavage, formation of 1073.55 amu cleavage ion, in words",trypsin,very limited SIF proteolysis
VAK-CML-ISMPVNTPGQFEDFFPASSR,fragment found,[1],"VAKISM, major; also recorded: VAKISMPVNTPGQF, major"
same,not cleaved,[2],less than 5% of the CML-modified VAK peptide was cleaved (16 h)
CC[C@H](C)[C@H](N)C(=O)N[C@@H](Cc1ccccc1)C(=O)N[C@@H](CC(C)C)C(=O)N[C@@H](C)C(=O)NCC(=O)N[C@@H](CC(=O)O)C(=O)N[C@@H](CCCCNCC(=O)O)C(=O)N[C@@H](CC(=O)O)C(=O)N[C@@H](CC(N)=O)C(=O)N[C@H](C(=O)N[C@H](C(=O)N[C@@H](CC(=O)O)C(=O)N[C@@H](CCC(N)=O)C(=O)N[C@H](C(=O)N[C@@H](CCC(=O)O)C(=O)N[C@@H](CCCCN)C(=O)O)[C@@H](C)CC)[C@@H](C)CC)C(C)C [IFLAG-CML],"SIF (trypsin) cleavage, formation of 1073.55 amu cleavage ion, in words",trypsin,prevented trypsin cleavage
IFLAGDK-CML-DNVIDQIEK,fragment found,[1],"IFLAGDKDNVIDQ, major; also recorded: AGDKDNVIDQ, major; also recorded: IFLAGDKD, major"
same,not cleaved,[2],the CML modification prevented trypsin cleavage of the peptide
VAKISMPVNTPGQFEDFFPASSR,fragment found,[1],"VAKISMPVNTPGQF, major; also recorded: VAKISM, major"
same,cleaved bond,[2],K287-I288
"VAKISMPVNTPGQFEDFFPASSR [VAK-CML, synthetic Ara h 1 peptide, residues 285–307, with CML modification at lysine 287 (K287)]",peptide cleaved at the K287 site in SIF (formation of 2227.05 amu ion as percentage of sum of parental and fragment ions),trypsin; listed as CML-modified VAK,less than 5%

# Source: publication PMC4534154 (Food Science & Nutrition, 2015)
